Test [1] is described as follows: Ex vivo inhibition of synaptosomal serotonin re-uptake 10 to 100 uM relative to control. Type of test: functional, subcellular. The note with it: Synaptosome; dose 10-100 µM.
Test [2] deals with T1, GABA-A receptor; alpha-1/beta-2/gamma-2 (Homo sapiens) (UniProt P14867+P47870+P18507). The experiment in a line: Allosteric modulation of GABAA alpha1beta2gamma2 (unknown origin) expressed in Xenopus oocytes assessed as potentiation of GABA-induced current response at 3 uM at -80 mV holding potential incubated for 3 mins by two electrode voltage clamp method relative to control. To be noted: Oocyte, filed as positive allosteric modulator. In kind it is cell-based.

Test [3] deals with T1, GABA-A receptor; alpha-1/beta-2/gamma-2 (Homo sapiens). Briefly: Allosteric modulation of GABAA alpha1beta2gamma2 (unknown origin) expressed in Xenopus oocytes at 3 uM at -80 mV holding potential incubated for 3 mins by two electrode voltage clamp method relative to control. Type of test: cell-based. The note with it: Oocyte. On the technique in general: Two-electrode voltage clamp holds a large cell at a set potential and records current.

The target is the same in test [4]. The experiment in a line: Allosteric modulation of GABAA alpha1beta2gamma2 (unknown origin) expressed in Xenopus oocytes assessed as potentiation of GABA-induced current response at 30 uM at -80 mV holding potential incubated for 3 mins by two electrode voltage clamp method. In kind it is cell-based. To be noted: Oocyte, filed as positive allosteric modulator.

Test [5] has the same target. Briefly: Allosteric modulation of GABAA alpha1beta2gamma2 (unknown origin) expressed in Xenopus oocytes assessed as potentiation of GABA-induced current response at 10 uM at -80 mV holding potential incubated for 3 mins by two electrode voltage clamp method. The note with it: Oocyte, filed as positive allosteric modulator. In kind it is cell-based.
The target is the same in test [6]. The experiment in a line: Allosteric modulation of GABAA alpha1beta2gamma2 (unknown origin) expressed in Xenopus oocytes assessed as potentiation of GABA-induced current response at 0.1 uM at -80 mV holding potential incubated for 3 mins by two electrode voltage clamp method relative to control. In kind it is cell-based. The note with it: Oocyte, filed as positive allosteric modulator.

In test [7] the test system is Oocyte. The experiment in a line: Allosteric modulation of GABAA alpha3beta2gamma2 (unknown origin) expressed in Xenopus oocytes assessed as potentiation of GABA-induced current response at 3 uM at -80 mV holding potential incubated for 3 mins by two electrode voltage clamp method. To be noted: Homo sapiens, filed as positive allosteric modulator. Type of test: cell-based.

Test [8] concerns Oocyte. Briefly: Allosteric modulation of GABAA alpha2beta2gamma2 (unknown origin) expressed in Xenopus oocytes assessed as potentiation of GABA-induced current response at 3 uM at -80 mV holding potential incubated for 3 mins by two electrode voltage clamp method. In kind it is cell-based. To be noted: Homo sapiens, filed as positive allosteric modulator.
The target in test [9] is Gamma-aminobutyric acid receptor subunit alpha-5/beta-2/gamma-2 (Homo sapiens) (UniProt P47870+P18507+P31644). Briefly: Allosteric modulation of GABAA alpha5beta2gamma2 (unknown origin) expressed in Xenopus oocytes assessed as potentiation of GABA-induced current response at 3 uM at -80 mV holding potential incubated for 3 mins by two electrode voltage clamp method. In kind it is cell-based. To be noted: Oocyte, filed as positive allosteric modulator.

Test [10] deals with Oocyte. The experiment in a line: Allosteric modulation of GABAA alpha6beta2gamma2 (unknown origin) expressed in Xenopus oocytes assessed as potentiation of GABA-induced current response at 3 uM at -80 mV holding potential incubated for 3 mins by two electrode voltage clamp method. Type of test: cell-based. To be noted: Homo sapiens, filed as positive allosteric modulator.
For test [11], the target named is GABA-A receptor; alpha-1/beta-3/gamma-2 (Homo sapiens) (UniProt P14867+P18507+P28472). The experiment in a line: Allosteric modulation of GABAA alpha1beta3gamma2 (unknown origin) expressed in Xenopus oocytes assessed as potentiation of GABA-induced current response at 3 uM at -80 mV holding potential incubated for 3 mins by two electrode voltage clamp method. In kind it is cell-based. The note with it: Oocyte, filed as positive allosteric modulator.

Test [12] addresses T1, GABA-A receptor; alpha-1/beta-2/gamma-2 (Homo sapiens). The experiment in a line: Allosteric modulation of GABAA alpha1beta2gamma2 (unknown origin) expressed in Xenopus oocytes assessed as potentiation of GABA-induced current response at 3 uM at -80 mV holding potential incubated for 3 mins by two electrode voltage clamp method. Type of test: cell-based. The note with it: Oocyte, filed as positive allosteric modulator.

Test [13] deals with GABA A receptor alpha-1/beta-1/gamma-2 (Homo sapiens) (UniProt P14867+P18507+P18505). The experiment in a line: Allosteric modulation of GABAA alpha1beta1gamma2 (unknown origin) expressed in Xenopus oocytes assessed as potentiation of GABA-induced current response at 3 uM at -80 mV holding potential incubated for 3 mins by two electrode voltage clamp method. The note with it: Oocyte, filed as positive allosteric modulator. In kind it is cell-based.

Test [14] addresses Gamma-aminobutyric acid receptor subunit alpha-1/beta-2/delta (Homo sapiens) (UniProt P14867+P47870+O14764). The experiment in a line: Allosteric modulation of GABAA alpha1beta2delta (unknown origin) expressed in Xenopus oocytes assessed as potentiation of GABA-induced current response at 3 uM at -80 mV holding potential incubated for 3 mins by two electrode voltage clamp method. Type of test: cell-based. The note with it: Oocyte, filed as positive allosteric modulator.

A further test is filed under the species Homo sapiens. The experiment in a line: Allosteric modulation of GABA(A)/BzR (unknown origin) assessed as potentiation of GABA-induced current response at 3 uM relative to control. To be noted: filed as positive allosteric modulator.
Test [15] deals with Oocyte. The experiment in a line: Allosteric modulation of GABAA alpha1S269Ibeta2N265Igamma2S280I mutant (unknown origin) expressed in Xenopus oocytes assessed as potentiation of GABA-induced current response at 3 uM at -80 mV holding potential incubated for 3 mins by two electrode voltage clamp method. In kind it is cell-based. The note with it: Homo sapiens.
Test [16] has as its system Oocyte. Briefly: Allosteric modulation of GABAA alpha1S269Ibeta2gamma2 mutant (unknown origin) expressed in Xenopus oocytes assessed as potentiation of GABA-induced current response at 3 uM at -80 mV holding potential incubated for 3 mins by two electrode voltage clamp method. In kind it is cell-based. To be noted: Homo sapiens.
The test system of test [17] is Oocyte. The experiment in a line: Allosteric modulation of GABAA alpha1beta2N265Igamma2 mutant (unknown origin) expressed in Xenopus oocytes assessed as potentiation of GABA-induced current response at 3 uM at -80 mV holding potential incubated for 3 mins by two electrode voltage clamp method. To be noted: Homo sapiens. Type of test: cell-based.
Test [18] has as its system Oocyte. Briefly: Allosteric modulation of GABAA alpha1beta2gamma2S280I mutant (unknown origin) expressed in Xenopus oocytes assessed as potentiation of GABA-induced current response at 3 uM at -80 mV holding potential incubated for 3 mins by two electrode voltage clamp method. Type of test: cell-based. The note with it: Homo sapiens.
Test [19] has as its target T2, GABA-A receptor; alpha-1/beta-2/gamma-2 (Homo sapiens, UniProt P14867+P18507+P47870).
T2 sequence (P14867 whole entry): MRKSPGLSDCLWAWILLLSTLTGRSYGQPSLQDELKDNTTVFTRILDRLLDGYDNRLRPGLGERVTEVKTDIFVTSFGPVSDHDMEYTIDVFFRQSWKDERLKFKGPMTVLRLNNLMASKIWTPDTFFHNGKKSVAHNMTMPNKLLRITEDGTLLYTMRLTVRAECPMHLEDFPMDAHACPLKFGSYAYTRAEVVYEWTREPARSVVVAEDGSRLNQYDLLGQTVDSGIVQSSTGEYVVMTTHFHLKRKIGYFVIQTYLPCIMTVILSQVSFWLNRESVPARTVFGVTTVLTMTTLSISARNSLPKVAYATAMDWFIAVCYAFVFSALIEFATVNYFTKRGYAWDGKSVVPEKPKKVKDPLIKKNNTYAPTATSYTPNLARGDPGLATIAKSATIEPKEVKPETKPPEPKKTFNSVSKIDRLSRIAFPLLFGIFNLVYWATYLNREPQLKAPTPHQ
T2 sequence (P47870 whole entry): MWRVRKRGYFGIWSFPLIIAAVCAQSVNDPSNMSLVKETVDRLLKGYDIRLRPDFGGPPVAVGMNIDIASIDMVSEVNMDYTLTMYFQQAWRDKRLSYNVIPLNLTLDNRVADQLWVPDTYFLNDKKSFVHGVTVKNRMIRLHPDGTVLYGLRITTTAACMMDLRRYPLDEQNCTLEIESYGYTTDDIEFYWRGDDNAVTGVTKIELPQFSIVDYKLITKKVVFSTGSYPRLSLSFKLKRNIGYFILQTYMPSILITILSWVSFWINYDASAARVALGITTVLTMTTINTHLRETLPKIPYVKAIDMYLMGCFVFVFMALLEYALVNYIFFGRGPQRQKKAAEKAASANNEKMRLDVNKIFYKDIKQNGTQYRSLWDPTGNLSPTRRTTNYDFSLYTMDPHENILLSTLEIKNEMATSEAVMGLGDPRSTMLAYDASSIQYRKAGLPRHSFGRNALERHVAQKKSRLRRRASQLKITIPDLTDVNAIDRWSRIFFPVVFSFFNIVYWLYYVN
T2 sequence (P18507 whole entry): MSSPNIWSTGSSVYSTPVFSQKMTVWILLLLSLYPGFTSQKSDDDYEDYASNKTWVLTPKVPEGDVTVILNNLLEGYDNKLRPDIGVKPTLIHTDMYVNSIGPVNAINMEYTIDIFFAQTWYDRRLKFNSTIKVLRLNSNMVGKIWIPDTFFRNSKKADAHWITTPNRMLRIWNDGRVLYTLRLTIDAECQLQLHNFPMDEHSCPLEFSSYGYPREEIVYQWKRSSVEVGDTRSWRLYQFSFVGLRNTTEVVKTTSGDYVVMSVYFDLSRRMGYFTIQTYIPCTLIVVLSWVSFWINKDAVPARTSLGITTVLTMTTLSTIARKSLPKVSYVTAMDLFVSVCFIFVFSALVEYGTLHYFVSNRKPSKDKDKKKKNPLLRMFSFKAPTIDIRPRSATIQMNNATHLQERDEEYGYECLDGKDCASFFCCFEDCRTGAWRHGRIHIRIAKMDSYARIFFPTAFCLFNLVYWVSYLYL
The experiment in a line: Allosteric modulation of GABAA alpha1beta2gamma2 (unknown origin) expressed in Xenopus oocytes assessed as potentiation of GABA-induced current response at -80 mV holding potential incubated for 3 mins by two electrode voltage clamp method. In kind it is cell-based, Oocyte.

For test [20], the target named is T1, GABA-A receptor; alpha-1/beta-2/gamma-2 (Homo sapiens). Briefly: Allosteric modulation of GABAA alpha1beta2gamma2 (unknown origin) expressed in Xenopus oocytes assessed as potentiation of GABA-induced current response at -80 mV holding potential incubated for 3 mins by two electrode voltage clamp method relative to control. Type of test: cell-based. The note with it: Oocyte, filed as positive allosteric modulator.

Test [21] is described as follows: Ex vivo inhibition of synaptosomal serotonin re-uptake 100 uM. In kind it is functional, subcellular. To be noted: Synaptosome.

Calls of active or inactive are those of the source. The calls are words filed in the database; no cut-off is given here.

Take `CC(C)=CCC[C@]1(C)[C@@H](CC=C(C)C)C[C@]2(CC=C(C)C)C(=O)C(CC=C(C)C)=C(O)[C@@]1(C(=O)C(C)C)C2=O`: the inhibition in [1] came out at 100%.
Turning to `CC(C)=CCc1c(O)cc2c(c1O)C(=O)[C@H](C)[C@@H](C)O2`, the Activity in test [2] came out at 3830%; in [3], 0.71%; in test [6] it was 60%; in the test listed under Homo sapiens it was 459%; in test [20], 4430%. Also, the result (in test [4]; in test [5]; in the test on Oocyte [7]; with Oocyte [8]; in test [9]; with Oocyte [10]) was Active. Also, the outcome in test [11], in test [12], in test [13] and in test [14] was Active. Besides, the result in the test with Oocyte [15], with Oocyte [16], with Oocyte [17] and in the test on Oocyte [18] was inactive. In addition, the EC50 in test [19] was found to be 4.5 µM. Besides, the inhibition entry in test [21] was “inactive”.
Turning to `CN1C(=O)CN=C(c2ccccc2)c2cc(Cl)ccc21`, in test [6], the Activity is over 200%.

What is called inhibition is the relative decrease from the control value, in per cent. Usually EC50 stands for the concentration giving half of the maximal effect.

The values are drawn from ChEMBL document CHEMBL4715701, “A new chromanone derivative isolated from Hypericum lissophloeus (Hypericaceae) potentiates GABAA receptor currents in a subunit specific fashion” (Bioorg Med Chem, 2016).
